For one test, the target named is TRKA^WT kinase (Homo sapiens (Human), UniProt P04629). The test can be described thus: Inhibitory activity against TRKA WT kinase (Caliper mobility shift). It counts as biochemical. The conditions noted are these: in vitro kinase assay. As for the experimental part: (§1) Kinase Assay Process: 1× Kinase buffer was prepared. […] The compounds were serially diluted into 10 concentrations ([…], 0.15, and 0.05 nM) using a Precision 3-fold dilution method. By using the Echo550 liquid handler, 250 nL of the 100-fold final concentration compound was transferred to an OptiPlate-384F plate. a 2.5× final concentration kinase solution was prepared using 1× Kinase buffer. 10 μL of the 2.5× final concentration kinase solution was added to the compound wells and the positive control wells, and 10 μL of 1× Kinase buffer was added to the negative control wells. The plate was centrifuged at 1000 rpm for 30 seconds, vortexed for mixing, and then incubated at room temperature for 10 minutes. A mixture of 5/3× final concentration of ATP and Kinase Substrate 22 was prepared using 1× Kinase buffer. 15 μL of the mixture of the 5/3× final concentration ATP and the substrate was added to initiate the reaction, the 384-well plate was centrifuged at 1000 rpm for 30 seconds, vortexed for mixing, and incubated at room temperature for the required time. 30 μL of the termination solution was added to stop the kinase reaction, the plate was centrifuged at 1000 rpm for 30 seconds, and vortexed for mixing. The conversion rate was measured using the Caliper EZ Reader.
Sequence of TRKA^WT kinase (P04629 33-796): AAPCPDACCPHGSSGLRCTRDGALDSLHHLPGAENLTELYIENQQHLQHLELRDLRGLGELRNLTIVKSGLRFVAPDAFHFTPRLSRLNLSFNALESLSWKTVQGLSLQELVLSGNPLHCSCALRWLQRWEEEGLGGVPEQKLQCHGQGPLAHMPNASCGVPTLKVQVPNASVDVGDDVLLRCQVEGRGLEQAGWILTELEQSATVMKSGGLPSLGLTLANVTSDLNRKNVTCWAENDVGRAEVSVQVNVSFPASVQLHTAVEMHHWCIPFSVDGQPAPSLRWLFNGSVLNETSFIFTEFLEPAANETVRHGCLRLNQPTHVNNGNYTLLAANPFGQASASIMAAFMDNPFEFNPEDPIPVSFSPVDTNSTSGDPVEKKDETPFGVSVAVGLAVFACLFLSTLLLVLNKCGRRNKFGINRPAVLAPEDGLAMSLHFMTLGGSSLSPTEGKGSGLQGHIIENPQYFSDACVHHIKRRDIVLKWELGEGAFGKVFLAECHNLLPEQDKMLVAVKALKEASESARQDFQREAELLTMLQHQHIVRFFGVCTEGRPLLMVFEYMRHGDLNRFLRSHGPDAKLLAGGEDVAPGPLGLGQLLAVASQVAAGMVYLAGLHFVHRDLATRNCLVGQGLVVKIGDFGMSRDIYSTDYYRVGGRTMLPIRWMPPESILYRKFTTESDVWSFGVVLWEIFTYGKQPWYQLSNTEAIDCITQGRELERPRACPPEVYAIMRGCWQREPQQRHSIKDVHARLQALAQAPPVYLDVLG
(§2) Data Analysis: the inhibition rate was calculated as follows:
(§3) % Inhibition=(Conversion %_max−conversion %_sample)÷(Conversion %_max−conversion %_min)×100
(§4) Conversion %_sample is the conversion rate reading for the sample; Conversion %_min is the average value of the negative control wells, representing the conversion rate for wells without enzyme activity: Conversion %_max is the average value of the positive control wells, representing the conversion rate for wells without compound inhibition. A dose-response curve was fitted using the log concentration of the compound as the X-axis and the percentage inhibition as the Y-axis. The log(inhibitor) vs. response-variable slope of the GraphPad Prism 5 software was used to fit the dose-response curve, and the IC50 value for each compound was obtained. The calculation formula is:
(§5) Y=Bottom+(Top−Bottom)/(1+10^((Log IC50−X)*HillSlope)).
(§6) wherein X represents the concentration of the compound to be tested; Y represents the inhibition rate at the concentration X: Top refers to the maximum response: Bottom refers to the baseline response; HillSlope refers to the slope of the curve (i.e., the gradient).

The target in another test is TRKA^F589L kinase (Homo sapiens (Human), UniProt P04629, F589L). The test can be described thus: Inhibitory activity against TRKA(F589L) kinase (Caliper mobility shift). It counts as biochemical. The settings on record: in vitro kinase assay. As for the experimental part: as §1, §2, §3, §4, §5, §6
Sequence of TRKA^F589L kinase (P04629 33-796 F589L): as the sequence (P04629 33-796) above, with F557L counted along it
For test [1], the system named is Ba/F3-TPM3-NTRK1-G667C cells. The test can be described thus: Growth inhibition of Ba/F3-TPM3-NTRK1-G667C cells (Cell Titer-Glo). It counts as cell-based. The settings on record: 72 hours, CTG; read-out: inhibitory activity IC50 Ba/F3-TPM3-NTRK1-G667C. The method, boiled down: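 Ba/F3 cells were exposed for 72 hours to serially DMSO-diluted compound at a top final concentration of 10 μM. Viability was read by Cell Titer-Glo luminescence after the plate equilibrated 30 min at room temperature and was then shaken 1 hour in the dark at room temperature.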

For test [2], the system named is Ba/F3-TPM3-NTRK1-G595R cells. The test can be described thus: Growth inhibition of Ba/F3-TPM3-NTRK1-G595R cells (Cell Titer-Glo). It counts as cell-based. The conditions noted are these: 72 hours, CTG; read-out: inhibitory activity IC50 Ba/F3-TPM3-NTRK1-G595R. As for the experimental part:
(§7) Then the solutions were subjected to a gradient dilution with DMSO: a clean, sterile V-bottom 96-well microplate was placed in the biological safety cabinet. First, 4 μL of DMSO was added to well B2 and 10 μL of DMSO was added to wells B3-B11 respectively; Next, 6 μL of the 10 mM solution was added to well B2. The microplate was pipetted up and down 10 times for mixing. […] Mixing was performed by pipetting up and down 10 times. The solution was diluted in order until well B10. only DMSO was added to well B11 (no compound).
(§8) 6× Compound Solution Preparation (6-fold dilution, × represents dilution factor): (Initial final concentration: 10 μM), a clean, sterile V-bottom 96-well microplate was placed in the biological safety cabinet. 99 μL of cell culture medium was added to each well from B2 to G11. By using a 12-channel pipettor, 1 μL of the compound solution prepared in the previous step was added into the corresponding wells. The solutions were pipetted up and down 10 times to mix the solutions. The highest concentration of compound in this step was 60 μM.
(§9) Treatment of Cells: the above-prepared cell culture plate was taken out of the incubator. 20 μL of compound solution from each well was added to the corresponding cell culture wells. The lowest pipetting speed was used and touching the bottom of the plate was avoided. The culture plate was gently shaked to mix the compound solution, then the plate was returned to the incubator for further culture for 72 hours.
(§10) The highest treatment concentration of the compound was 10 μM. After 72 hours of treatment, the Cell Titer-Glo (CTG) assay was performed. First, the cell culture plate was removed from the CO2 incubator and allowed to stand at room temperature for 30 minutes to ensure uniform temperature of the plate. The pre-prepared Cell Titer-Glo reagent (following the manufacturer's instructions) was taken and allowed to stand at room temperature to thaw. 60 μL of Cell Titer-Glo reagent was added to each well containing cells. The cells were incubated on a horizontal shaker in a dark place at 225 rpm for 1 hour at room temperature. Then, a Tecan Spark microplate reader was used to read the plate using chemiluminescence according to the manufacturer's instructions.

The test system of test [3] is Ba/F3-TPM3-NTRK1-WT cells. The test can be described thus: Growth inhibition of Ba/F3-TPM3-NTRK1-WT cells (Cell Titer-Glo). It counts as cell-based. The settings on record: 72 hours, CTG; read-out: inhibitory activity IC50 Ba/F3-TPM3-NTRK1-WT. As to the method: as §7, §8, §9, §10
For orientation: Cellular ATP, detected with luciferase, serves as a proxy for viable cell number.

For `C[C@H]1Nc2ccc3ncc(n3n2)-c2cc(ccn2)COc2ccc(F)cc21` [Example I-14, (R)-(E)-5^4-fluoro-6-methyl-4-oxa-7-aza-1(3,6)-imidazo[1,2-b]pyridazina-2(2,4)-pyridina-5(1,2)-benzenacycloheptaphane], the IC50 at TRKA^WT kinase is less than 3 nM; at TRKA^F589L kinase, less than 5 nM; in test [1], less than 100 nM.

With `C[C@H]1Nc2ccc3ncc(n3n2)-c2cc(ccn2)COc2c(F)cc(F)cc21` [Example I-16, (R)-(E)-5^4,5^6-difluoro-6-methyl-4-oxa-7-aza-1(3,6)-imidazo[1,2-b]pyridazine-2(2,4)-pyridina-5(1,2)-benzenacycloheptaphane], the IC50 at TRKA^WT kinase was less than 3 nM; at TRKA^F589L kinase, less than 5 nM; in test [1] it was less than 100 nM.

For `C[C@H]1Nc2ccc3ncc(n3n2)-c2cc(ccn2)COc2ccccc21` [Example I-18, (R)-(E)-6-methyl-4-oxa-7-aza-1(3,6)-imidazo[1,2-b]pyridazine-2(2,4)-pyridina-5(1,2)-benzenacycloheptaphane], the results for the IC50 (on TRKA^WT kinase; on TRKA^F589L kinase; in test [1]) were less than 3 nM, less than 5 nM and less than 100 nM, respectively.

Take `C[C@H]1Nc2ccc3ncc(n3n2)-c2cc(ccn2)COc2ncccc21` [Example I-20, (R)-(E)-6-methyl-4-oxa-7-aza-1(3,6)-imidazo[1,2-b]pyridazina-2(2,4), 5(2,3)-dipyridinacycloheptaphane]: the results for the IC50 (at TRKA^WT kinase; on TRKA^F589L kinase; in test [1]) were less than 3 nM, less than 5 nM and less than 100 nM, respectively.

Consider `C[C@H]1Nc2ccc3ncc(n3n2)-c2cncc(c2)COc2ccc(F)cc21` [Example I-22, (R)-(E)-5^4-fluoro-6-methyl-4-oxa-7-aza-1(3,6)-imidazo[1,2-b]pyridazina-2(3,5)-pyridina-5(1,2)-benzenacycloheptaphane], for which the IC50 on TRKA^WT kinase is less than 3 nM; at TRKA^F589L kinase, less than 5 nM; in test [1], less than 100 nM.

As for `C[C@H]1Nc2ccc3ncc(n3n2)-c2cc(ccn2)OCc2ncc(F)cc21` [Example I-24, (R)-(E)-5^5-fluoro-6-methyl-3-oxa-7-aza-1(3,6)-imidazo[1,2-b]pyridazina-2(2,4), 5(2,3)-dipyridinacycloheptaphane], the IC50 is less than 3 nM on TRKA^WT kinase, less than 5 nM on TRKA^F589L kinase and less than 100 nM in test [1].

Regarding `C[C@H]1Nc2ccc3ncc(n3n2)-c2cc(ncn2)COc2ccccc21` [Example I-26, (R)-(E)-6-methyl-4-oxa-7-aza-1(3,6)-imidazo[1,2-b]pyridazina-2(4,6)-pyrimidina-5(1,2)-benzenacycloheptaphane], the IC50 is less than 3 nM at TRKA^WT kinase, less than 5 nM at TRKA^F589L kinase and less than 100 nM in test [1].

As for `C[C@H]1Nc2ccc3ncc(n3n2)-c2cc(ccn2)CCOc2ccccc21` [Example I-28, (4R,E)-4-methyl-6-oxa-3-aza-2(3,6)-imidazo[1,2-b]pyridazina-1(2,4)-pyridina-5(1,2)-benzenacyclooctaphane], the figures for the IC50 (on TRKA^WT kinase; on TRKA^F589L kinase; in test [1]) were less than 3 nM, less than 5 nM and less than 100 nM, respectively.

As to `C[C@H]1Nc2ccc3ncc(n3n2)-c2cc(ccn2)OCc2ccc(F)cc21` [Example I-30, (R)-(E)-5^4-fluoro-6-methyl-3-oxa-7-aza-1(3,6)-imidazo[1,2-b]pyridazina-2(2,4)-pyridina-5(1,2)-benzenacycloheptaphane], the figures for the IC50 (at TRKA^WT kinase; at TRKA^F589L kinase; in test [1]) were less than 3 nM, less than 5 nM and less than 100 nM, respectively.

`Fc1ccc2c(c1)[C@H]1C[C@H](F)CN1c1ccc3ncc(n3n1)-c1cc(ncn1)CCO2` [Example I-70, (3^2R,3^4S,E)-3^4,4^5-difluoro-5-oxa-2(3,6)-imidazo[1,2-b]pyridazina-1(4,6)-pyrimidina-3(1,2)-pyrrolidina-4(1,2)-benzenacycloheptaphane]: the IC50 is 4.6 nM in test [1], 1.1 nM in test [2] and 0.12 nM in test [3].

For `Fc1cnc2c(c1)[C@H]1C[C@H](F)CN1c1ccc3ncc(n3n1)-c1cc(ncn1)CCO2` [Example I-72, (3^2R,3^4S,E)-3^4,4^5-difluoro-5-oxa-2(3,6)-imidazo[1,2-b]pyridazina-1(4,6)-pyrimidina-4(3,2)-pyridina-3(1,2)-pyrrolidinacycloheptaphane], the IC50 in test [1] stood at 7.4 nM; in test [2], 1.5 nM; in test [3], 0.07 nM.

In the case of `Fc1ccc2c(c1)[C@H]1C[C@H](F)CN1c1ccc3ncc(n3n1)-c1nccc(n1)CCO2` [Example I-86, (3^2R,3^4S,E)-3^4,4^5-difluoro-5-oxa-2(3,6)-imidazo[1,2-b]pyridazina-1(2,4)-pyrimidina-3(1,2)-pyrrolidina-4(1,2)-benzenacycloheptaphane], the IC50 in test [1] amounted to 13.9 nM; in test [2], 2.3 nM; in test [3] it was 0.25 nM.

With `Fc1ccc2c(c1)[C@H]1C[C@H](F)CN1c1ccc3ncc(n3n1)-c1cc(cnn1)CCO2` [Example I-92, (3^2R,3^4S,E)-3^4,4^5-difluoro-5-oxa-2(3,6)-imidazo[1,2-b]pyridazina-1(3,5)-pyridazina-3(1,2)-pyrrolidina-4(1,2)-benzenacycloheptaphane], the IC50 in test [1] worked out at 4.3 nM; in test [2], 0.6 nM; in test [3], 0.18 nM.

Consider `Fc1cnc2c(c1)[C@H]1C[C@H](F)CN1c1ccc3ncc(n3n1)-c1cc(cnn1)CCO2` [Example I-94, (3^2R,3^4S,E)-3^4,4^5-difluoro-5-oxa-2(3,6)-imidazo[1,2-b]pyridazina-1(3,5)-pyridazina-4(3,2)-pyridina-3(1,2)-pyrrolidinacycloheptaphane], for which the IC50 came to 2.5 nM in test [1], 1 nM in test [2] and 0.09 nM in test [3].

As for `C[C@H]1Cc2ccnc(n2)-c2cnc3ccc(nn23)N2C[C@@H](F)C[C@@H]2c2cc(F)cnc2O1` [Example I-96, (3^2R,3^4S,6S,E)-3^4,4^5-difluoro-6-methyl-5-oxa-2(3,6)-imidazo[1,2-b]pyridazina-1(2,4)-pyrimidina-4(3,2)-pyridina-3(1,2)-pyrrolidinacycloheptaphane], the figures for the IC50 in test [1], in test [2] and in test [3] were 3.7 nM, 1.4 nM and 0.11 nM, respectively.

Turning to `C[C@@H]1CCc2ncc(F)cc2[C@H]2CCCN2c2ccn3ncc(c3n2)C(=O)N1` [LOXO-195, reference compound], the IC50 was determined as 169 nM in test [1], 10 nM in test [2] and 3.07 nM in test [3].

For the origin of these results see patent US20260028352A1, “MACROCYCLIC IMIDAZO [1,2-B] PYRIDAZINE DERIVATIVE, PREPARATION METHOD THEREFOR, AND USE THEREOF” (SUZHOU LANGRUI BIOPHARMACEUTICAL CO., LTD., priority 2022, published 2026).
